Experiment: mn = molality of the nth substance listed, in mol/kg
Conditions: 101 kPa, Liquid, Falling or rolling sphere viscometry

O=C([O-])CC(O)(CC(=O)[O-])C(=O)[O-].[Na+].[Na+].[Na+] [trisodium citrate] + O
viscosity [mPa·s]
Conditions | 288.15 K | 298.15 K | 308.15 K | 318.15 K
m1 = 0.2 | 1.343 | 1.056 | 0.858 | 0.719
m1 = 0.4 | 1.661 | 1.296 | 1.047 | 0.868
m1 = 0.6 | 2.072 | 1.592 | 1.277 | 1.049
m1 = 0.8 | 2.633 | 2.002 | 1.581 | 1.287
